Measured values: ChEMBL document CHEMBL1201861, “Genomics of Drug Sensitity in Cancer screening data, Wellcome Trust Sanger Institute”

Key:
Assay in all cases: cells
CTB-1 = format: functional, cell-based, Homo sapiens; conditions: Homo sapiens, CTB-1
Description: SANGER: Inhibition of human CTB-1 cell growth in a cell viability assay.

DEL = format: functional, cell-based, Homo sapiens; conditions: Homo sapiens, DEL;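 further: growth inhibition of the human DEL cell line, read out with a cell viability assay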
Description: SANGER: Inhibition of human DEL cell growth in a cell viability assay.

EFO-27 = format: functional, cell-based; conditions: Homo sapiens;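 further: growth inhibition of EFO-27 cells, read out with a cell viability assay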
Description: SANGER: Inhibition of human EFO-27 cell growth in a cell viability assay.

EW-1 = format: functional, cell-based, Homo sapiens; conditions: Homo sapiens, EW-1
Description: SANGER: Inhibition of human EW-1 cell growth in a cell viability assay.

EW-11 = format: functional, cell-based, Homo sapiens; conditions: Homo sapiens, EW-11;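 further: growth inhibition of human EW-11 cells, measured with a cell viability assay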
Description: SANGER: Inhibition of human EW-11 cell growth in a cell viability assay.

GAK = format: functional, cell-based, Homo sapiens; conditions: Homo sapiens, GAK;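 further: cell growth inhibition read out by a cell viability assay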
Description: SANGER: Inhibition of human GAK cell growth in a cell viability assay.

HEL = format: functional, cell-based, Homo sapiens; conditions: Homo sapiens, HEL;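 further: growth inhibition of HEL cells, read out with a cell viability assay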
Description: SANGER: Inhibition of human HEL cell growth in a cell viability assay.

HH = format: functional, cell-based, Homo sapiens; conditions: Homo sapiens, HH
Description: SANGER: Inhibition of human HH cell growth in a cell viability assay.

IST-MES1 = format: functional, cell-based, Homo sapiens; conditions: Homo sapiens, IST-MES1;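 further: growth inhibition of IST-MES1 cells, measured with a cell viability assay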
Description: SANGER: Inhibition of human IST-MES1 cell growth in a cell viability assay.

K562 = format: functional, cell-based, Homo sapiens; conditions: Homo sapiens, K562
Description: SANGER: Inhibition of human K-562 cell growth in a cell viability assay.

KLE = format: functional, cell-based; conditions: Homo sapiens;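 further: growth inhibition of human KLE cells, read out with a cell viability assay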
Description: SANGER: Inhibition of human KLE cell growth in a cell viability assay.

L-428 = format: functional, cell-based, Homo sapiens; conditions: Homo sapiens, L-428
Description: SANGER: Inhibition of human L-428 cell growth in a cell viability assay.

LB996-RCC = format: functional, cell-based, Homo sapiens; conditions: Homo sapiens, LB996-RCC
Description: SANGER: Inhibition of human LB996-RCC cell growth in a cell viability assay.

LS-411N = format: functional, cell-based, Homo sapiens; conditions: Homo sapiens, LS-411N
MHH-NB-11 = format: functional, cell-based, Homo sapiens; conditions: Homo sapiens, MHH-NB-11;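 further: growth inhibition of human MHH-NB-11 cells, read out by a cell viability assay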
Description: SANGER: Inhibition of human MHH-NB-11 cell growth in a cell viability assay.

MPP-89 = format: functional, cell-based, Homo sapiens; conditions: Homo sapiens, MPP-89;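 further: growth inhibition of human MPP-89 cells, read out with a cell viability assay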
Description: SANGER: Inhibition of human MPP-89 cell growth in a cell viability assay.

MSTO-211H = format: functional, cell-based, Homo sapiens; conditions: Homo sapiens, MSTO-211H
Description: SANGER: Inhibition of human MSTO-211H cell growth in a cell viability assay.

NB5 = format: functional, cell-based, Homo sapiens; conditions: Homo sapiens, NB5;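 further: growth inhibition of NB5 cells, read out as cell viability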
Description: SANGER: Inhibition of human NB5 cell growth in a cell viability assay.

NCI-H1299 = format: functional, cell-based; conditions: Homo sapiens;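 further: growth inhibition of human NCI-H1299 cells, read out by a cell viability assay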
Description: SANGER: Inhibition of human NCI-H1299 cell growth in a cell viability assay.

NCI-H1304 = format: functional, cell-based, Homo sapiens; conditions: Homo sapiens, NCI-H1304;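 further: growth inhibition of the cancer cell line, measured in a cell viability assay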
Description: SANGER: Inhibition of human NCI-H1304 cell growth in a cell viability assay.

NCI-H1355 = format: functional, cell-based, Homo sapiens; conditions: Homo sapiens, NCI-H1355;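 further: growth inhibition of human NCI-H1355 cells, read out by a cell viability assay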
Description: SANGER: Inhibition of human NCI-H1355 cell growth in a cell viability assay.

NCI-H1581 = format: functional, cell-based, Homo sapiens; conditions: Homo sapiens, NCI-H1581;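 further: cell growth inhibition read out by a viability assay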
Description: SANGER: Inhibition of human NCI-H1581 cell growth in a cell viability assay.

NCI-H209 = format: functional, cell-based, Homo sapiens; conditions: Homo sapiens, NCI-H209;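 further: growth inhibition of human NCI-H209 cells, measured by a cell viability assay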
Description: SANGER: Inhibition of human NCI-H209 cell growth in a cell viability assay.

NCI-N87 = format: functional, cell-based; conditions: Homo sapiens;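 further: growth inhibition of human NCI-N87 cells, read out with a cell viability assay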
Description: SANGER: Inhibition of human NCI-N87 cell growth in a cell viability assay.

NH-12 = format: functional, cell-based, Homo sapiens; conditions: Homo sapiens, NH-12;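 further: growth inhibition of NH-12 cells, read out with a cell viability assay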
Description: SANGER: Inhibition of human NH-12 cell growth in a cell viability assay.

OCUB-M = format: functional, cell-based; conditions: Homo sapiens;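 further: growth inhibition of the cancer cell line, read out through a cell viability assay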
Description: SANGER: Inhibition of human OCUB-M cell growth in a cell viability assay.

RKO = format: functional, cell-based, Homo sapiens; conditions: Homo sapiens, RKO;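 further: growth inhibition of human RKO cells, read out with a cell viability assay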
Description: SANGER: Inhibition of human RKO cell growth in a cell viability assay.

RPMI-8866 = format: functional, cell-based, Homo sapiens; conditions: Homo sapiens, RPMI-8866
Description: SANGER: Inhibition of human RPMI-8866 cell growth in a cell viability assay.

RS4-11 = format: functional, cell-based, Homo sapiens; conditions: Homo sapiens, RS4-11;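 further: growth inhibition of RS4-11 cells, read out by a cell viability assay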
Description: SANGER: Inhibition of human RS4-11 cell growth in a cell viability assay.

Ramos-2G6-4C10 = format: functional, cell-based, Homo sapiens; conditions: Homo sapiens, Ramos-2G6-4C10;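 further: growth inhibition of the cell line, measured by a cell viability read-out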
Description: SANGER: Inhibition of human Ramos-2G6-4C10 cell growth in a cell viability assay.

SHP77 = format: functional, cell-based, Homo sapiens, SHP-77; conditions: Homo sapiens, SHP77;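 further: growth inhibition of human SHP-77 cells measured by a cell viability assay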
Description: SANGER: Inhibition of human SHP-77 cell growth in a cell viability assay.

SK-MEL-1 = format: functional, cell-based, Homo sapiens; conditions: Homo sapiens, SK-MEL-1;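 further: growth inhibition of human SK-MEL-1 cells, read out by a cell viability assay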
Description: SANGER: Inhibition of human SK-MEL-1 cell growth in a cell viability assay.

SW 962 = format: functional, cell-based, Homo sapiens; conditions: Homo sapiens, SW 962;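 further: growth inhibition of human SW962 cells, read out by a cell viability assay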
Description: SANGER: Inhibition of human SW962 cell growth in a cell viability assay.

A253 cell line = format: functional, cell-based, Homo sapiens; conditions: Homo sapiens, A253;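 further: growth inhibition of A253 cells, read out with a cell viability assay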
Description: SANGER: Inhibition of human A253 cell growth in a cell viability assay.

A388 = format: functional, cell-based; conditions: Homo sapiens;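 further: growth inhibition of human A388 cells, read out with a cell viability assay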
Description: SANGER: Inhibition of human A388 cell growth in a cell viability assay.

A498 = format: functional, cell-based, Homo sapiens; conditions: Homo sapiens, A498;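 further: growth inhibition of human A498 cells, read out with a cell viability assay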
Description: SANGER: Inhibition of human A498 cell growth in a cell viability assay.

ALL-PO = format: functional, cell-based, Homo sapiens; conditions: Homo sapiens, ALL-PO;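 further: growth inhibition of ALL-PO cells, read out by a cell viability assay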
Description: SANGER: Inhibition of human ALL-PO cell growth in a cell viability assay.

ATN-1 = format: functional, cell-based, Homo sapiens; conditions: Homo sapiens, ATN-1;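 further: growth inhibition of human ATN-1 cells, read out with a cell viability assay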
Description: SANGER: Inhibition of human ATN-1 cell growth in a cell viability assay.

BB49-HNC = format: functional, cell-based, Homo sapiens; conditions: Homo sapiens, BB49-HNC;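 further: cell viability assay read-out, reported as inhibition of BB49-HNC cell growth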
Description: SANGER: Inhibition of human BB49-HNC cell growth in a cell viability assay.

BPH-1 = format: functional, cell-based; conditions: Homo sapiens;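 further: cell viability assay measuring growth inhibition of human BPH-1 cells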
Description: SANGER: Inhibition of human BPH-1 cell growth in a cell viability assay.

Becker = format: functional, cell-based, Homo sapiens; conditions: Homo sapiens, Becker;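 further: growth inhibition of Becker cells, read out with a cell viability assay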
Description: SANGER: Inhibition of human Becker cell growth in a cell viability assay.

C8166 = format: functional, cell-based, Homo sapiens; conditions: Homo sapiens, C8166;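 further: growth inhibition of human C8166 cells measured by a cell viability assay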
Description: SANGER: Inhibition of human C8166 cell growth in a cell viability assay.

TGBC24TKB = format: functional, cell-based; conditions: Homo sapiens;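 further: growth inhibition of human TGBC24TKB cells, read out with a cell viability assay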
Description: SANGER: Inhibition of human TGBC24TKB cell growth in a cell viability assay.

UACC-257 = format: functional, cell-based, Homo sapiens; conditions: Homo sapiens, UACC-257
Description: SANGER: Inhibition of human UACC-257 cell growth in a cell viability assay.

no-10 = format: functional, cell-based, Homo sapiens; conditions: Homo sapiens;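 further: growth inhibition of no-10 cells, read out with a cell viability assay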
Description: SANGER: Inhibition of human no-10 cell growth in a cell viability assay.

COLO-320-HSR = format: functional, cell-based, Homo sapiens; conditions: Homo sapiens, COLO-320-HSR;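 further: growth inhibition of COLO-320-HSR cells, determined with a cell viability assay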
Description: SANGER: Inhibition of human COLO-320-HSR cell growth in a cell viability assay.

COLO-668 = format: functional, cell-based, Homo sapiens; conditions: Homo sapiens, COLO-668
Description: SANGER: Inhibition of human COLO-668 cell growth in a cell viability assay.

LB1047-RCC = format: functional, cell-based, Homo sapiens; conditions: Homo sapiens, LB1047-RCC;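 further: inhibition of cell growth, determined with a cell viability assay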
Description: SANGER: Inhibition of human LB1047-RCC cell growth in a cell viability assay.

NEC8 = format: functional, cell-based, Homo sapiens; conditions: Homo sapiens, NEC8;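 further: growth inhibition of human NEC8 cells, read out by a cell viability assay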
Description: SANGER: Inhibition of human NEC8 cell growth in a cell viability assay.

OAW-42 = format: functional, cell-based; conditions: Homo sapiens;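 further: growth inhibition of OAW-42 cells, read out with a cell viability assay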
Description: SANGER: Inhibition of human OAW-42 cell growth in a cell viability assay.

TGW = format: functional, cell-based, Homo sapiens; conditions: Homo sapiens, TGW;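 further: growth inhibition of human TGW cells, read out with a cell viability assay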
Description: SANGER: Inhibition of human TGW cell growth in a cell viability assay.

Q: Which results are given for `O=C1NC(=O)c2c1c(-c1ccccc1Cl)cc1[nH]c3ccc(O)cc3c21`?
A: IC50 (CTB-1): 0.242 µM; IC50 (DEL): 0.485 µM; IC50 (EFO-27): > 2 µM; IC50 (EW-1): 0.338 µM; IC50 (EW-11): > 2 µM; IC50 (GAK): > 2 µM; IC50 (HEL): 1.22 µM; IC50 (HH): 1.64 µM; IC50 (IST-MES1): > 2 µM; IC50 (K562): > 2 µM; IC50 (KLE): > 2 µM; IC50 (L-428): > 2 µM; IC50 (LB996-RCC): > 2 µM; IC50 (LS-411N): > 2 µM; IC50 (MHH-NB-11): > 2 µM; IC50 (MPP-89): > 2 µM; IC50 (MSTO-211H): > 2 µM; IC50 (NB5): > 2 µM; IC50 (NCI-H1299): > 2 µM; IC50 (NCI-H1304): > 2 µM; IC50 (NCI-H1355): > 2 µM; IC50 (NCI-H1581): > 2 µM; IC50 (NCI-H209): 0.562 µM; IC50 (NCI-N87): > 2 µM; IC50 (NH-12): > 2 µM; IC50 (OCUB-M): > 2 µM; IC50 (RKO): > 2 µM; IC50 (RPMI-8866): > 2 µM; IC50 (RS4-11): 0.898 µM; IC50 (Ramos-2G6-4C10): 0.61 µM; IC50 (SHP77): > 2 µM; IC50 (SK-MEL-1): > 2 µM; IC50 (SW 962): > 2 µM; IC50 (A253 cell line): > 2 µM; IC50 (A388): > 2 µM; IC50 (A498): > 2 µM; IC50 (ALL-PO): > 2 µM; IC50 (ATN-1): 0.316 µM; IC50 (BB49-HNC): > 2 µM; IC50 (BPH-1): 1.07 µM; IC50 (Becker): > 2 µM; IC50 (C8166): > 2 µM; IC50 (TGBC24TKB): > 2 µM; IC50 (UACC-257): > 2 µM; IC50 (no-10): > 2 µM; IC50 (COLO-320-HSR): 1.82 µM; IC50 (COLO-668): > 2 µM

Q: Which results are given for `NC(=O)Nc1cc(-c2cccc(F)c2)sc1C(=O)N[C@H]1CCCNC1` [AZD-7762]?
A: IC50 (CTB-1): 0.133 µM; IC50 (DEL): 0.0459 µM; IC50 (EFO-27): 0.43 µM; IC50 (EW-1): 0.189 µM; IC50 (EW-11): 0.563 µM; IC50 (GAK): 1.05 µM; IC50 (HEL): 0.225 µM; IC50 (HH): 0.708 µM; IC50 (IST-MES1): > 2 µM; IC50 (K562): > 2 µM; IC50 (KLE): > 2 µM; IC50 (L-428): > 2 µM; IC50 (LB1047-RCC): 0.0602 µM; IC50 (LS-411N): 0.376 µM; IC50 (MHH-NB-11): 0.39 µM; IC50 (MPP-89): 0.245 µM; IC50 (MSTO-211H): 0.299 µM; IC50 (NB5): 0.797 µM; IC50 (NCI-H1299): 0.556 µM; IC50 (NCI-H1304): > 2 µM; IC50 (NCI-H1355): 0.679 µM; IC50 (NCI-H1581): > 2 µM; IC50 (NCI-H209): 0.324 µM; IC50 (NCI-N87): 0.846 µM; IC50 (NEC8): 0.042 µM; IC50 (NH-12): 0.357 µM; IC50 (OAW-42): 0.937 µM; IC50 (OCUB-M): > 2 µM; IC50 (RKO): 0.52 µM; IC50 (RPMI-8866): 0.139 µM; IC50 (RS4-11): 0.203 µM; IC50 (Ramos-2G6-4C10): 0.148 µM; IC50 (SHP77): > 2 µM; IC50 (SK-MEL-1): > 2 µM; IC50 (SW 962): > 2 µM; IC50 (A388): > 2 µM; IC50 (A498): 1.73 µM; IC50 (ALL-PO): 0.242 µM; IC50 (ATN-1): 0.0342 µM; IC50 (BB49-HNC): 1.4 µM; IC50 (BPH-1): > 2 µM; IC50 (Becker): 0.658 µM; IC50 (C8166): 1.91 µM; IC50 (TGBC24TKB): 0.165 µM; IC50 (UACC-257): > 2 µM; IC50 (no-10): > 2 µM; IC50 (COLO-320-HSR): 1 µM; IC50 (COLO-668): > 2 µM

Q: What does the source list for `COc1cc(N2CCC(N3CCN(C)CC3)CC2)ccc1Nc1ncc(Cl)c(Nc2ccccc2S(=O)(=O)C(C)C)n1` [TAE-684]?
A: IC50 (CTB-1): > 2 µM; IC50 (DEL): < 0.00781 µM; IC50 (EW-1): 0.103 µM; IC50 (EW-11): > 2 µM; IC50 (GAK): […]; IC50 (HEL): 1.15 µM; IC50 (HH): > 2 µM; IC50 (IST-MES1): 0.988 µM; IC50 (K562): > 2 µM; IC50 (KLE): > 2 µM; IC50 (L-428): > 2 µM; IC50 (LB1047-RCC): 0.545 µM; IC50 (LB996-RCC): 0.694 µM; IC50 (LS-411N): 0.675 µM; IC50 (MHH-NB-11): > 2 µM; IC50 (MPP-89): 0.579 µM; IC50 (MSTO-211H): > 2 µM; IC50 (NB5): 1.58 µM; IC50 (NCI-H1299): > 2 µM; IC50 (NCI-H1304): 1.13 µM; IC50 (NCI-H1355): 0.552 µM; IC50 (NCI-H1581): > 2 µM; IC50 (NCI-H209): > 2 µM; IC50 (NCI-N87): > 2 µM; IC50 (NEC8): 0.413 µM; IC50 (NH-12): > 2 µM; IC50 (OCUB-M): 1.36 µM; IC50 (RKO): 1.5 µM; IC50 (RPMI-8866): > 2 µM; IC50 (RS4-11): > 2 µM; IC50 (Ramos-2G6-4C10): > 2 µM; IC50 (SHP77): > 2 µM; IC50 (SK-MEL-1): > 2 µM; IC50 (SW 962): 1.56 µM; IC50 (A253 cell line): > 2 µM; IC50 (A388): > 2 µM; IC50 (A498): > 2 µM; IC50 (ALL-PO): 0.245 µM; IC50 (ATN-1): 0.333 µM; IC50 (BB49-HNC): > 2 µM; IC50 (Becker): > 2 µM; IC50 (C8166): > 2 µM; IC50 (TGBC24TKB): 0.302 µM; IC50 (TGW): 0.859 µM; IC50 (UACC-257): > 2 µM; IC50 (no-10): > 2 µM; IC50 (COLO-320-HSR): 0.198 µM; IC50 (COLO-668): > 2 µM
